As a reminder, the IC50 is the concentration that gives 50% inhibition.

Each structure is given as a SMILES string.

This note sets out measurements from patent US20250339547A1, “MET BCL-XL INHIBITOR ANTIBODY-DRUG CONJUGATES AND METHODS OF USE THEREOF” (Novartis AG, priority 2022, published 2025).

One experiment concerns SNU-5. In words: In vitro activity in SNU-5 cell line (CTG 120h), Example 12. The class given is cell-based. As to conditions: Homo sapiens, SNU-5, 120 h, SNU5, CTG 120 h. How it is done:
EBC-1 and SNU-5 cell lines were cultured in the media described above at 37° C. in a humidified atmosphere containing 5% CO2. […] Effects of mAbs or ADCs on cell viability were assessed after 5 days of incubation at 37° C./5% CO2 by quantification of cellular ATP levels using CellTiter-Glo reagent (Promega Ref: G7571) at 75 μL reagent/well. All the conditions were tested in triplicates. Luminescence was quantified on a multipurpose plate reader. IC50s were calculated using standard four-parametric curve fitting. […] Two independent experiments were performed (N1 and N2).

Another experiment has as its system EBC-1. In words: In vitro activity in EBC-1 cell line (CTG 120h), Example 6. The class given is cell-based. The settings on record: Homo sapiens, EBC-1, 120 h, EBC-1, CTG 120 h. How it is done:
Cell lines were cultured in the media described above at 37° C. in a humidified atmosphere containing 5% CO2. Cells were seeded in 96 well clear bottom plates (96 well clear-bottom, white, Corning reference 3903) and exposed to the mAbs or ADCs for 120h (serially diluted; 9 concentrations each, triplicates). Effects of mAbs or ADCs on cell viability were assessed after 5 days of incubation at 37° C./5% CO2 by quantification of cellular ATP levels using CellTiter-Glo reagent (Promega Ref: G7571) at 75 μL reagent/well. All the conditions were tested in triplicates. Luminescence was quantified on a multipurpose plate reader. IC50s were calculated using standard four-parametric curve fitting. IC50 is defined as the compound concentration at which the CTG signal is reduced to 50% of that measured for the control. Two independent experiments were performed (N1 and N2). IC50 data of each experiment and the arithmetic mean is shown in Table 14 for all the antibodies and ADCs tested.

For experiment [1], the system named is H1650 cells. In words: In vitro activity in H1650 cell line (3D, CTG 120h), Example 12. The class given is cell-based. As to conditions: Homo sapiens, NCI-H1650, 120 h, H1650 3D. How it is done: (§1) H1650 cells were cultivated in RPMI supplemented with 10% heat inactivated fetal bovine serum, penicillin (100 IU/ml), streptomycin (100 μg/ml) and L-glutamine (2 mM). Cells were cultured at 37° C. in a humidified atmosphere containing 5% CO2. Cells were seeded in 96 microwell round bottom plates (96 microwell low attachment plates, Costar reference 7007; 75 μL/well of 125000 cells/mL) and exposed to the mAbs or ADCs for 120h (serially diluted; 9 concentrations each, duplicates). Effects of mAbs or ADCs on cell viability were assessed after 5 days of incubation at 37° C./5% CO2 by quantification of cellular ATP levels using CellTiter-Glo reagent (Promega Ref: G7571) at 75 μL reagent/well. All the conditions were tested in duplicates. Luminescence was quantified on a multipurpose plate reader. IC50s were calculated using standard four-parametric curve fitting. IC50 is defined as the compound concentration at which the CTG signal is reduced to 50% of that measured for the control. Two independent experiments were performed (N1 and N2).
Plating Conditions: EBC-1: 75 μL/well of 60000 cells/mL for 120h in 96-well plate SNU-5: 75 μL/well of 60000 cells/mL for 120h in 96-well plate H1650 (ATOC): 75 μL/well of 125000 cells/mL for 120h in 96 microwell round bottom plates

Experiment [2] concerns H1650 cells. The experiment can be described thus: In vitro activity in H1650 cell line (3D, CTG 120h), Example 6. The class given is cell-based. The settings on record: Homo sapiens, NCI-H1650, 120 h, H1650 3D. The procedure: as §1, with “CellTiterGlo” for “CellTiter-Glo reagent (Promega Ref: G7571)”, “N2). IC50 data of each experiment and the arithmetic mean is shown in Table 14 for all the antibodies and ADCs tested. NT=not tested; ND=not determined.” for “N2).”

Another experiment has as its system H1650 xenografts. The experiment can be described thus: In vivo efficacy alone or with paclitaxel in Met non amplified NCI-H1650 lung adenocarcinoma human cell model, Example 15. As to conditions: paclitaxel 12.5 mg/kg IV at day 1, 8 and 15, single agent. More on the design: species or system SCID mice.
For experiment [3], the system named is HCC78 lung cancer cell line. In words: HCC78 viability, single agents or 1:1 combination with paclitaxel (CTG 120h), Example 13. The class given is cell-based. The settings on record: Homo sapiens, HCC78, 120 h. The procedure: HCC78 lung cancer cell line was cultured in the media described above at 37° C. in a humidified atmosphere containing 5% CO2. […] When in 1:1 combination, both paclitaxel and the mAb or ADC were serially diluted (9 concentrations each, triplicates). Effect on cell viability was assessed after 5 days of incubation at 37° C./5% CO2 by quantification of cellular ATP levels using CellTiter-Glo reagent (Promega Ref: G7571) at 75 μL reagent/well. All the conditions were tested in triplicates. Luminescence was quantified on a multipurpose plate reader. IC50s were calculated using standard four-parametric curve fitting. […] Two independent experiments were performed (N1 and N2).

Procedure for H1650 xenografts: Below are the procedures for determining the in vivo therapeutic effect of a Bcl-xL ADC targeting the Met protein as a single agent or in combination with paclitaxel. Their activities were compared to the corresponding naked anti-Met mAb or Ab G-L42C-P25 (non-targeting ADC) formulated in Phosphate-Buffered Saline (PBS) in a Met non amplified NCI-H1650 lung adenocarcinoma human cell line after intravenous (IV) administration.
NCI-H1650 cells, obtained from ATCC, were cultured in RPMI supplemented with 10% SBS, 1% Penicillin-Streptomycin and 1% HEPES. Cells were resuspended in 50% Matrigel® (Corning®) and 0.1 ml containing 10×10^6 cells were subcutaneously inoculated into the right flank of female SCID mice, provided by Charles River.
Mice body weight was monitored 3 times a week and tumor size measured using electronic calipers. Tumor volume was estimated by measuring the minimum and maximum tumor diameters using the formula: (minimum diameter)2(maximum diameter)/2.
With DTV (Delta Tumor Volume) at Dx, calculated being TV at Dx−TV at Randomization.
Mice were sacrificed at the first measurement for which tumor volume exceeded 2000 mm3 or at the first signs of animal health deterioration. […] SCID mice were maintained according to institutional guidelines.

`Cc1c(Nc2nc3ccccc3s2)nnc2c1CCCN2c1ccc(-c2cnn(C[C@]34C[C@]5(C)C[C@](C)(C3)C[C@@](OCCNCCCO)(C5)C4)c2C)c(C(=O)O)n1` [P25, 6-[3-(1,3-benzothiazol-2-ylamino)-4-methyl-6,7-dihydro-5H-pyrido[2,3-c]pyridazin-8-yl]-3-[1-[[3-[2-(3-hydroxypropylamino)ethoxy]-5,7-dimethyl-1-adamantyl]methyl]-5-methyl-pyrazol-4-yl]pyridine-2-carboxylic acid]: the IC50 with SNU-5 (Mean) was 5510 nM; with SNU-5 (N1) it was 5510 nM; in the experiment with SNU-5 (N2), > 30000 nM; in the experiment with EBC-1 (mean), 43.4 nM; in the experiment on EBC-1 (n = 1) it was 20.8 nM; in the experiment with EBC-1 (n = 2), 65.9 nM. Besides, the IC50 in the experiment with H1650 cells [1] (N1) came to 8.28 nM; in the experiment with H1650 cells [1] (N2), 5.9 nM; with H1650 cells [1] (mean) it was 7.09 nM; with H1650 cells [2] (mean), 1.57 nM; with H1650 cells [2] (n = 1), 1.47 nM; in the experiment with H1650 cells [2] (n = 2) it was 1.66 nM.

In the case of `CC(=O)O[C@H]1C(=O)[C@@]2(C)[C@H]([C@H](OC(=O)c3ccccc3)[C@]3(O)C[C@H](OC(=O)[C@H](O)[C@@H](NC(=O)c4ccccc4)c4ccccc4)C(C)=C1C3(C)C)[C@]1(OC(C)=O)CO[C@@H]1C[C@@H]2O` [Paclitaxel, paclitaxel], in the experiment on H1650 xenografts, the “TGI % (d 18)” value is on record as −14.4%. In addition, the IC50 in experiment [3] (Mean) is 6.44 nM; in experiment [3] (N1) it was 6.04 nM; in experiment [3] (N2), 6.84 nM.
